In patent US20110245081A1, “HERBICIDE COMPOSITION FOR LAWN” (priority 2006, published 2011):
Like-named read-outs stand apart in the source and are kept apart here.

What was measured:
Format in all cases: in vivo
[1] = tested on: Chenopodium ficifolium; test: Test Example 1: soil treatment by mixing, herbicidal effect; details: 1080 h
[2] = tested on: Poa annua L.; test: as above; details: 1080 h
Description: (§1) On a field of Zoysia japonica sectioned to 100 cm×100 cm, seeds of Digitaria ciliayis (Retz.) Koeler, Poa annua L., Polygonum hydropiper L., Euphorbia supine Rafin, Oxalis comiculata L., Cyperus microiria were sown and covered with 0.5 cm soil. Seven days after weeds sowing, treatment was conducted with watering amount of 200 cc/m^2. The prescribed amount of test compound was sprayed with a small spray in the form of the formulation prepared according to the above-mentioned examples or a wettable powder of a single compound diluted with water.
(§2) The herbicidal effect and the degree of phytotoxicity to the lawn were studied 45 days after the agent treatment.
(§3) Herbicidal effect: 100%: complete death 0%: no effect Phytotoxicity: 100%: complete death 0%: no phytotoxicity
(§4) In the tables, ai means the effective component.

[3] = tested on: Oxalis corniculata L.; test: as above; details: 1080 h
Description: as §1, §2, §3, §4

[4] = tested on: Digitaria ciliayis (Retz.) Koeler; test: as above; details: 1080 h
Description: as §1, §2, §3, §4

[5] = tested on: Polygonum blumei; test: as above; details: 1080 h
[6] = tested on: Erigeron canadensis; test: as above; details: 1080 h
[7] = tested on: Polygonum blumei; test: Test Example 2: foliage and soil treatment by mixing, herbicidal effect; details: 1080 h
Description: as §1, §3
(§5) A test section of Zoysia matrella had been prepared in the same method as in the Test Example 1 and on the 28th day after weeds sowing a treatment was conducted with watering amount of 200 cc/m2. The prescribed amount of test compound was sprayed with a small spray in the form of the formulation prepared according to the aforementioned examples or a wettable powder of a single compound diluted with water.
(§6) The herbicidal effect and the degree of phytotoxicity to the lawn were studied 45 days after the agent treatment in the same manner as Test Example 1.

[8] = tested on: Poa annua L.; test: as above; details: 1080 h
Description: as §1, §3, §5, §6

[9] = tested on: Oxalis corniculata L.; test: as above; details: 1080 h
Description: as §1, §3, §5, §6

[10] = tested on: Digitaria ciliayis (Retz.) Koeler; test: as above; details: 1080 h
Description: as §1, §3, §5, §6

[11] = tested on: Erigeron canadensis; test: as above; details: 1080 h
[12] = tested on: Chenopodium ficifolium; test: as above; details: 1080 h
[13] = tested on: Zoysia matrella; details: soil treatment, 45 days
[14] = tested on: Zoysia matrella; details: foliage and soil treatment, 45 days
[15] = soil treatment, 45 days, Indanofan 1000 g ai/ha
[16] = foliage and soil treatment, 45 days, Indanofan 1000 g ai/ha
[17] = soil treatment, 45 days, Asulam 1500 g ai/ha
[18] = foliage and soil treatment, 45 days, Asulam 1500 g ai/ha
[19] = read-out: Herbicidal effect Chenopodium ficifolium
[20] = read-out: Herbicidal effect Poa annua L.
[21] = read-out: Herbicidal effect Oxalis corniculata L.
[22] = read-out: Herbicidal effect Digitaria ciliayis (Retz.) Koeler
[23] = read-out: Herbicidal effect Polygonum blumei
[24] = soil treatment, 45 days, Ethoxysulfuron 125 g ai/ha
[25] = foliage and soil treatment, 45 days, Ethoxysulfuron 125 g ai/ha
[26] = soil treatment, 45 days, Fentrazamide 1500 g ai/ha
[27] = foliage and soil treatment, 45 days, Fentrazamide 1500 g ai/ha
[28] = soil treatment, 45 days, Oxaziclomefone 150 g ai/ha
[29] = foliage and soil treatment, 45 days, Oxaziclomefone 150 g ai/ha

CCC1(CC2(c3cccc(Cl)c3)CO2)C(=O)c2ccccc2C1=O (racemic) [Indanofan, (RS)-2-[2-(3-chlorophenyl)-2,3-epoxypropyl]-2-ethylindan-1,3-dione]
pest or weed control at 1000 g/ha [1, 15]: 70%
pest or weed control at 1000 g/ha [2, 15]: 0%
pest or weed control at 1000 g/ha [3, 15]: 50%
pest or weed control at 1000 g/ha [4, 15]: 0%
pest or weed control at 1000 g/ha [5, 15]: 60%
pest or weed control at 1000 g/ha [6, 15]: 75%
pest or weed control at 1000 g/ha [7, 16]: 0%
pest or weed control at 1000 g/ha [8, 16]: 30%
pest or weed control at 1000 g/ha [9, 16]: 0%
pest or weed control at 1000 g/ha [10, 16]: 30%
pest or weed control at 1000 g/ha [11, 16]: 0%
pest or weed control at 1000 g/ha [12, 16]: 20%

COC(=O)NS(=O)(=O)c1ccc(N)cc1 [Asulam, methyl sulfanyl carbamate]
pest or weed control at 1500 g/ha [1, 17]: 0%
pest or weed control at 1500 g/ha [2, 17]: 20%
pest or weed control at 1500 g/ha [3, 17]: 0%
pest or weed control at 1500 g/ha [4, 17]: 20%
pest or weed control at 1500 g/ha [5, 17]: 0%
pest or weed control at 1500 g/ha [6, 17]: 0%
pest or weed control at 1500 g/ha [7, 18]: 70%
pest or weed control at 1500 g/ha [8, 18]: 30%
pest or weed control at 1500 g/ha [9, 18]: 60%
pest or weed control at 1500 g/ha [10, 18]: 40%
pest or weed control at 1500 g/ha [11, 18]: 60%
pest or weed control at 1500 g/ha [12, 18]: 60%

CCN(CC)C(=O)n1cnc(S(=O)(=O)c2c(C)cc(C)cc2C)n1 [Cafenstrole, N,N-diethyl-3-meticylsulfonyl-1H-1,2,4-triazol-1-carboxamide]
Zoysia matrella phytotoxicity ([13]; Cafenstrole 2000 g ai/ha): 0%
pest or weed control at 2000 g/ha [1, 19]: 70%
pest or weed control at 2000 g/ha [2, 20]: 0%
pest or weed control at 2000 g/ha [3, 21]: 50%
pest or weed control at 2000 g/ha [4, 22]: 0%
pest or weed control at 2000 g/ha [5, 23]: 60%
pest or weed control at 2000 g/ha ([6]; soil, read-out: Herbicidal effect Erigeron canadensis): 75%
pest or weed control at 2000 g/ha [7, 23]: 0%
pest or weed control at 2000 g/ha [8, 20]: 30%
pest or weed control at 2000 g/ha [9, 21]: 0%
pest or weed control at 2000 g/ha [10, 22]: 40%
Zoysia matrella phytotoxicity ([14]; Cafenstrole 2000 g ai/ha): 0%
pest or weed control at 2000 g/ha ([11]; read-out: Herbicidal effect Erigeron canadensis): 0%
pest or weed control at 2000 g/ha [12, 19]: 20%

CCOc1ccccc1OS(=O)(=O)NC(=O)Nc1nc(OC)cc(OC)n1 [Ethoxysulfuron, 1-(4,6-dimethoxypyrimidin-2-yl)-3-(2-ethoxyphenoxysulfonyl)urea]
pest or weed control at 125 g/ha [1, 24]: 70%
pest or weed control at 125 g/ha [2, 24]: 0%
pest or weed control at 125 g/ha [3, 24]: 50%
pest or weed control at 125 g/ha [4, 24]: 0%
pest or weed control at 125 g/ha [5, 24]: 60%
pest or weed control at 125 g/ha [6, 24]: 75%
pest or weed control at 125 g/ha [7, 25]: 40%
pest or weed control at 125 g/ha [8, 25]: 0%
pest or weed control at 125 g/ha [9, 25]: 30%
pest or weed control at 125 g/ha [10, 25]: 0%
pest or weed control at 125 g/ha [11, 25]: 60%
pest or weed control at 125 g/ha [12, 25]: 50%

CCN(C(=O)n1nnn(-c2ccccc2Cl)c1=O)C1CCCCC1 [Fentrazamide, 4-(2-chlorophenyl)-N-cyclohexyl-N-ethyl-4,5-dihydro-5-oxo-1H-terazol-1-carboxamide]
Zoysia matrella phytotoxicity ([13]; Fentrazamide 1500 g ai/ha): 0%
pest or weed control at 1500 g/ha [1, 26]: 20%
pest or weed control at 1500 g/ha [2, 26]: 80%
pest or weed control at 1500 g/ha [3, 26]: 0%
pest or weed control at 1500 g/ha [4, 26]: 90%
pest or weed control at 1500 g/ha [5, 26]: 0%
pest or weed control at 1500 g/ha [6, 26]: 0%
pest or weed control at 1500 g/ha [7, 27]: 0%
pest or weed control at 1500 g/ha [8, 27]: 30%
pest or weed control at 1500 g/ha [9, 27]: 0%
pest or weed control at 1500 g/ha [10, 27]: 40%
Zoysia matrella phytotoxicity ([14]; Fentrazamide 1500 g ai/ha): 0%
pest or weed control at 1500 g/ha [11, 27]: 0%
pest or weed control at 1500 g/ha [12, 27]: 0%

CC1=C(c2ccccc2)C(=O)N(C(C)(C)c2cc(Cl)cc(Cl)c2)CO1 [Oxaziclomefone, 3-[1-(3,5-dichlorophenyl)-1-methylethyl]-3,4-dihydro-6-methyl-5-phenyl-2H-1,3-oxazin-4-one]
pest or weed control at 150 g/ha [1, 28]: 0%
pest or weed control at 150 g/ha [2, 28]: 90%
pest or weed control at 150 g/ha [3, 28]: 0%
pest or weed control at 150 g/ha [4, 28]: 90%
pest or weed control at 150 g/ha [5, 28]: 0%
pest or weed control at 150 g/ha [6, 28]: 0%
pest or weed control at 150 g/ha [7, 29]: 0%
pest or weed control at 150 g/ha [8, 29]: 30%
pest or weed control at 150 g/ha [9, 29]: 0%
pest or weed control at 150 g/ha [10, 29]: 30%
pest or weed control at 150 g/ha [11, 29]: 0%
pest or weed control at 150 g/ha [12, 29]: 0%
